# Source: patent publication US8778961B2, “O-methylated rapamycin derivatives for alleviation and inhibition of lymphoproliferative disorders” (The Trustees of the University of Pennsylvania, priority 2000, dated 2014)
# Several values for one entry are separate records, joined by “and”; a condition that tells them apart may be missing. Equal values may be shown once.
# How the values were obtained:
# A2D6 line = assay: apoptosis (Annexin V flow cytometry); type: cell-based, human; details: 24 hours
# Protocol: (§1) The cell lines to be examined were cultured with several concentrations of SDZ RAD (0 to 10 nanomolar) for 24-48 hours. The cells were washed with DPBS and stain solution (pH 7.2) containing 3% PEG 6000, 50 micrograms per milliliter DNA fluorochrome propidium iodide (PI; Calbiochem, San Diego, Calif.), annexin V-FITC as described (Douglas et al., 1998, Cytometry 32:57-65) 0.1% (v/v) TRITON™ X (Sigma, St. Louis, Mo.), 4 millimolar citrate buffer pH 7.8, and 360 units per milliliter RNase A (Worthington Biochemicals, Freehold, N.J.) for 30 minutes at 37 C. Next, salt solution pH 7.2 (3% w/v PEG 6000, PI 50 micrograms per milliliter, 0.1% v/v TRITON™ X, and 0.4 molar NaCl) was added, and the cells were incubated at 4° C. in the dark for 1 hour before flow cytometry analysis was performed, as described (Douglas et al., 1998, Cytometry 32:57-65; Kawamata et al., 1998, Blood 91:561-569; Pepper et al., 1998, Leuk. Res. 22:439-444).
# (§2) Previous studies have shown that immunosuppressive macrolides as represented by rapamycin can induce or enhance apoptosis stimulated by other agents (Gottschalk et al., 1994, Proc. Natl. Acad. Sci. USA 91:7350-7354; Muthukkumar et al., 1995, Transplantation 60:264-270; Shi et al., 1995, Cancer Res. 55:1982-1988; Hosoi et al., 1999, Cancer Res. 59:886-894). In order to determine if SDZ RAD affects the apoptotic rate in PTLD-like cells, we tested apoptosis-induced surface expression of Annexin V by flow cytometry in the 20A, A1, A2D6 cell lines (FIG. 3). […] In A2D6 line, it led to 11% increase, and in the 20A line to 12% increase. At the highest dose (10 nanomolar), SDZ RAD led to approximately 240% increase in A1 line and 45% increase in both A2D6 and 20A lines.
# 20A line = assay: apoptosis (Annexin V flow cytometry); type: cell-based, human; details: 24 hours
# Protocol: as §1, §2
# A1 line = assay: apoptosis (Annexin V flow cytometry); type: cell-based, human; details: 24 hours
# Protocol: as §1, §2
# A1 cell line tumors = assay: treatment of established xenotransplanted tumors in SCID mice; type: in vivo
# Protocol: (§3) Establishment and passaging of the xenotransplanted tumors was performed as described (Douglas et al., 1998, Cytometry 32:57-65; Kawamata et al., 1998, Blood 91:561-569; Pepper et al., 1998, Leuk. Res. 22:439-444). To deplete macrophages and NK cells and to enhance tumor engraftment, SCID mice were injected intraperitoneally with 30-45 milligrams per kilogram of etoposide (Bedford Laboratories, Bedford, Ohio) 4 days prior to implantation of the human EBV^+ B-cell lines (Visonneau et al., 1998, Am. J. Path. 152:1299-1311). Ten million cells of each line employed (see results) were inoculated into mice either intraperitoneally or subcutaneously in 200 microliters of Dulbecco's Phosphate Buffered Saline (DPBS; BioWhittaker, Walkersville, Md.). Ascites or palpable subcutaneous tumors developed 3-5 weeks after cell injection.
# (§4) Tumor treatment and growth inhibition experiments were performed using fragments of the established subcutaneous tumors (Pasqualucci et al., 1995, Blood 85:2139-2146, Visonneau et al., 1998, Am. J. Path. 152:1299-1311). For this purpose, mice were anesthetized with KETALAR™ (ketamine, Parke-Davis, Morris Plains, N.J.) by intraperitoneal injection of 100 milligrams per kilogram. Next, the primary tumor was aseptically removed and freed from necrotic, fatty and connective tissue and divided into small pieces of roughly equal size and 3-4 pieces per mouse were injected subcutaneously. Treatment of established tumors with SDZ RAD was started when tumors reached 5 millimeters diameter. In growth inhibition experiments, the treatment was initiated 3 days prior to the tumor implantation. Tumor volume in all experiments was determined from the equation: volume=0.4ab^2, where a and b designate respectively long and short diameter of the tumor. The transplanted mice were monitored for tumor growth for a period of up to 2 months. Five milligrams per kilogram of SDZ RAD was administered once a day by gavage as described (Schuurman et al., 1997, Transplantation 64:32-5; Schuler et al. 1997, Transplantation 64:36-42).
# (§5) Mice were sacrificed by exposure to FORANE™ (isoflurane, Ohmeda, Liberty Place, N.J.) on day 29 in the drug toxicity study, on day 40-55 in the tumor growth inhibition study or when tumors achieved approximately 2 centimeter diameter, or when ulceration of the skin, signs of severe respiratory distress, weakness, or lethargy appeared. Complete autopsy was performed on all mice at the end of the study regardless of their appearance. Tumor and internal organs (spleen, liver, lung, heart, kidney, small and large intestines, femoral bone for bone marrow) were fixed in 10% (v/v) formalin, embedded in paraffin, cut into […] sections, transferred to glass slides, and stained with hematoxylin and eosin. Representative tumor fragments were stained immunohistochemically by standard streptavidin-biotin complex technique using commercially available reagents (Research Genetics, Huntsville, Ala.), antibodies: anti-CD20 (L-26) and LMP-1 (both from DAKO, Carpinteria, Calif.) and Ki67 (mib1; Immunotech, Westbrook, Me.). EBV-encoded RNA (EBER-1), and detected using commercially available reagents.
# (§6) In order to determine the in vivo effect of SDZ RAD on PTLD-like cells, 15A, 20A, and A1 cell line tumors were implanted into 7-15 SCID mice per cell line. Treatment was initiated once the tumors reached 5 millimeters diameter, which corresponds to a volume of 50 cubic millimeters. SDZ RAD was administered by daily gavage at 5 milligrams per kilogram, which represents a non-toxic and effective immunosuppressive dose (Schuurman et al., 1997, Transplantation 64:32-5; Schuler et al. 1997, Transplantation 64:36-42).
# 20A tumors = assay: as above; type: in vivo
# Protocol: as §3, §4, §5, §6
# 15A tumors = assay: as above; type: in vivo; details: 5 milligrams per kilogram daily gavage
# Protocol: as §3, §4, §5, §6
structure (smiles),measurement,setting,value
"CO[C@H]1C[C@@H]2CC[C@@H](C)[C@@](O)(O2)C(=O)C(=O)N2CCCC[C@H]2C(=O)O[C@H]([C@H](C)C[C@@H]2CC[C@@H](OCCO)[C@H](OC)C2)CC(=O)[C@H](C)/C=C(\C)[C@@H](O)[C@@H](OC)C(=O)[C@H](C)C[C@H](C)/C=C/C=C/C=C/1C [SDZ RAD, 40-O-(2-hydroxy)ethyl-rapamycin]",increase in the number of apoptotic cells,A2D6 line; 1 nanomolar,11%
same,increase in the number of apoptotic cells,A2D6 line; 10 nanomolar,45%
same,increase in the number of apoptotic cells,20A line; 1 nanomolar,12%
same,increase in the number of apoptotic cells,20A line; 10 nanomolar,45%
same,increase in the number of apoptotic cells,A1 line; 1 nanomolar,approximately 60%
same,percentage of apoptotic cells,"A1 line; 1 nanomolar, from 10% without drug",16%
same,increase in the number of apoptotic cells,A1 line; 10 nanomolar,approximately 240%
same,mice with steady regression on further treatment,A1 cell line tumors; after day 21,all 8
same,tumors showing any evidence of growth,A1 cell line tumors; day 21,0/8
same,median volume of the treated tumors,"A1 cell line tumors; day 21, 5 milligrams per kilogram daily gavage",50 cubic millimeters
same,mean tumor volume,A1 cell line tumors; day 53,< 5 cubic millimeters
same,mice in which no lymphoma could be detected (total tumor eradication),"A1 cell line tumors; day 53, 8 treated mice",4 and 4 out of 8
same,mice with microscopically-confirmed residual lymphoma,"A1 cell line tumors; day 53, 8 treated mice",4
same,treated mice with significant regression in the tumor volume,20A tumors; 5 milligrams per kilogram daily gavage,6 out of 10
same,average treated tumor volume,"20A tumors; day 19, 5 milligrams per kilogram daily gavage, equal to initial tumor size",50 cubic millimeters
same,median tumor volume,"20A tumors; day 53, subset of mice with regression",< 5 cubic millimeters
same,effect on tumor growth,15A tumors; started at 5 millimeters tumor diameter,marked drug-induced delay of the tumor growth but no absolute tumor growth inhibition or regression
same,median tumor volume,"15A tumors; day 21, treated mice",approximately 240 cubic millimeters
same,tumor volume,"15A tumors; day 38, treated mice",around 1000 cubic millimeters
